This experiment addresses T1, human LXRβ (Homo sapiens, UniProt P55055).
T1 construct: expressed in transfected cells; host or cells: HEK293 cells (ATCC CRL-1573), transient transfection with pFA-hLXRβ/GAL4 and pUAS
T1 sequence (P55055 222-460 limits assumed): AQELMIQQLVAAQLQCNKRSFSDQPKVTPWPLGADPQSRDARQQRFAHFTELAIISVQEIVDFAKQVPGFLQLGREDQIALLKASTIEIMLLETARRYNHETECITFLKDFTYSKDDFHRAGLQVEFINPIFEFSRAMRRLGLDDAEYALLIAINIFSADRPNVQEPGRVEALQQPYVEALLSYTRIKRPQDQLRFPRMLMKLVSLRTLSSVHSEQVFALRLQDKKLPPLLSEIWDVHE
The experiment can be described thus: Assay for Transcriptional Activity of LXRβ (GAL4-hLXRβ LBD luciferase reporter, transient transfection). It is filed as cell-based. As to conditions: HEK293 cells transfected with pFA-hLXRβ/GAL4 and pUAS, 24 hours; for Emax: fold value in comparison with the control (DMSO-treated group); for pEC50: increase of transcriptional activity of LXRβ, average of three independent tests. A digest of the protocol: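 EC50 values, averaged over three independent runs, come from a four-parameter fit of 9-point half-log curves spanning 0.01–50 μM. Luciferase output was read in lysed HEK293 cells 24 h after dosing at 37 °C, following transient transfection with a GAL4-human LXRβ LBD fusion plus GAL4-responsive reporter.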

A word on the pEC50: it is the EC50 on a negative log10 scale, so that one unit is a factor of ten. Read a high pEC50 as a low EC50.

pEC50: −log10 of the molar value.

As for `CS(=O)(=O)N1CC=C(c2ccc(C3CC(C(O)(C(F)(F)F)C(F)(F)F)=NN3c3ccccc3Cl)cn2)CC1` (centres unmarked) [Example 358, 1-(2-chloro-phenyl)-5-[6-(1-methanesulfonyl-1,2,3,6-tetrahydropyridin-4-yl)-pyridin-3-yl]-3-[di-(trifluoromethyl)-hydroxy-methyl]-4,5-dihydro-1H-pyrazole], the Emax is reported as 90 fold and the pEC50 was 6.14.
On the same counts, the results for `O=S(=O)(C1CC1)N1CC=C(c2ccc(C3CC(C(O)(C(F)(F)F)C(F)(F)F)=NN3c3ccccc3Cl)cn2)CC1` (centres unmarked) [Example 359, 1-(2-chloro-phenyl)-5-[6-(1-cyclopropanesulfonyl-1,2,3,6-tetrahydropyridin-4-yl)-pyridin-3-yl]-3-[di-(trifluoromethyl)-hydroxy-methyl]-4,5-dihydro-1H-pyrazole] are 92 fold and 6.20.
`CS(=O)(=O)N1CCN(c2ccc(C3CC(C(O)(C(F)(F)F)C(F)(F)F)=NN3c3ccccc3Cl)cn2)CC1` (centres unmarked) [Example 360, 1-(2-chloro-phenyl)-5-[6-(4-methanesulfonyl-piperazin-1-yl)-pyridin-3-yl]-3-[di-(trifluoromethyl)-hydroxy-methyl]-4,5-dihydro-1H-pyrazole] had an Emax of 45 fold and a pEC50 of 4.99.
With `CC(=O)c1cccc(-c2ccc(C3CC(C(O)(C(F)(F)F)C(F)(F)F)=NN3c3ccccc3Cl)cc2F)c1` (centres unmarked) [Example 361, 5-(3′-acetyl-2-fluoro-biphenyl-4-yl)-1-(2-chloro-phenyl)-3-[di-(trifluoromethyl)-hydroxy-methyl]-4,5-dihydro-1H-pyrazole], the Emax was found to be 39 fold and the pEC50 is 6.20.
On the same counts, the results for `CC(=O)c1ccc(-c2ccc(C3CC(C(O)(C(F)(F)F)C(F)(F)F)=NN3c3ccccc3Cl)cc2F)cc1` (centres unmarked) [Example 362, 5-(4′-acetyl-2-fluoro-biphenyl-4-yl)-1-(2-chloro-phenyl)-3-[di-(trifluoromethyl)-hydroxy-methyl]-4,5-dihydro-1H-pyrazole] are 72 fold and 6.24.
The like results for `COc1ccc(-c2ccc(C3CC(C(O)(C(F)(F)F)C(F)(F)F)=NN3c3ccccc3Cl)cc2F)cc1` (centres unmarked) [Example 363, 1-(2-chloro-phenyl)-5-(2-fluoro-4′-methoxy-biphenyl-4-yl)-3-[di-(trifluoromethyl)-hydroxy-methyl]-4,5-dihydro-1H-pyrazole] were, in that order, 50 fold and 5.92.
In turn, `CS(=O)(=O)c1ccc(-c2ccc(C3CC(C(O)(C(F)(F)F)C(F)(F)F)=NN3c3ccccc3Cl)cc2F)cc1` (centres unmarked) [Example 365, 1-(2-chloro-phenyl)-5-(2-fluoro-4′-methylsulfonyl-biphenyl-4-yl)-3-[di-(trifluoromethyl)-hydroxy-methyl]-4,5-dihydro-1H-pyrazole] gave an Emax of 68 fold and a pEC50 of 6.55.
On the same counts, the results for `CC(C)Oc1ccccc1-c1ccc(C2CC(C(O)(C(F)(F)F)C(F)(F)F)=NN2c2ccccc2Cl)cc1F` (centres unmarked) [Example 367, 1-(2-chloro-phenyl)-5-(2-fluoro-2′-isopropoxy-biphenyl-4-yl)-3-[di-(trifluoromethyl)-hydroxy-methyl]-4,5-dihydro-1H-pyrazole] are 59 fold and 6.51.
Compound `COc1ccc(-c2ccc(C3CC(C(O)(C(F)(F)F)C(F)(F)F)=NN3c3ccccc3Cl)cc2F)cn1` (centres unmarked) [Example 368, 1-(2-chloro-phenyl)-5-[3-fluoro-4-(6-methoxy-pyridin-3-yl)-phenyl]-3-[di-(trifluoromethyl)-hydroxy-methyl]-4,5-dihydro-1H-pyrazole] had an Emax of 57 fold and a pEC50 of 5.72.
On the same counts, the results for `CSc1cccc(-c2ccc(C3CC(C(O)(C(F)(F)F)C(F)(F)F)=NN3c3ccc(F)cc3F)cc2)c1` (centres unmarked) [Example 369, 1-(2,4-difluoro-phenyl)-5-(3′-methylsulfanyl-biphenyl-4-yl)-3-[di-(trifluoromethyl)-hydroxy-methyl]-4,5-dihydro-1H-pyrazole] are 28 fold and 6.18.
